Like-named read-outs stand apart in the source and are kept apart here.
Target: recombinant eIF4E (Homo sapiens (Human), UniProt P06730)
Assay: Fluorescence polarization competition assay for eIF4E binding potency
In short: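 Protein and fluorescent cap-analog probe (EDA-m7GDP-ATTO-550) were mixed first for 5 min, after which serially diluted compound was added to final 75 nM eIF4E, 20 nM probe, 1% DMSO. Reactions equilibrated 30 min at room temperature before polarization was measured.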

[1] = fluorescence polarization competition, 75 nM recombinant eIF4E, 20 nM EDA-m7GDP-ATTO-550, IC50 class, read-out: elF4E FP
[2] = inhibition of eIF4E/EDA-m7GDP-ATTO-550 binding by 50%, Table 4B calculated values, read-out: IC50
[3] = inhibition of eIF4E/EDA-m7GDP-ATTO-550 binding, calculated IC50 values, Table 4B, read-out: IC50

recombinant eIF4E, sequence (P06730 whole entry): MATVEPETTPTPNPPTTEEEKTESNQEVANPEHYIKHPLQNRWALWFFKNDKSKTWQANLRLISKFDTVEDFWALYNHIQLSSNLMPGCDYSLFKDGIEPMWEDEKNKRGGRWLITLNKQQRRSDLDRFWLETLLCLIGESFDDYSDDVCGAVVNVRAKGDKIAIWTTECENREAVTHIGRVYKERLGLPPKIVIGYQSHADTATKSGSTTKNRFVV

| Compound | IC50 [1] | IC50 [2] | IC50 [3] |
| --- | --- | --- | --- |
| Cc1nc2cc(C(F)(F)F)cc(C#N)c2c(=O)n1CCOc1ccc(Cl)cc1-c1cc(CN)nc2c(C(=O)O)csc12 [compound 452] | < 50 nM | 46.6 nM | – |
| Cc1nc2cc(C(F)(F)F)cc(C#N)c2c(=O)n1CCOc1ccc(Cl)cc1-c1cc(CN(C)C)nc2c(C(=O)O)csc12 [compound 636] | < 50 nM | 33.2 nM | – |
| Cc1cc(-c2cc(Cl)ccc2OCCn2c(C)nc3cnc(NCC(F)(F)F)c(C#N)c3c2=O)c2scc(C(=O)O)c2n1 [compound 972] | < 50 nM | 9.77 nM | – |
| Cc1nc2cc(C(F)(F)F)c(N3CCN(CCO)CC3)c(C#N)c2c(=O)n1CCOc1ccc(Cl)cc1-c1ccnc2ccsc12 [compound 852] | < 50 nM | 21.4 nM | – |
| Cc1cc(-c2nc3c(=O)n(CCOc4ccc(Cl)cc4-c4ccc(C(N)=O)c5c(C(=O)O)csc45)c(C)nc3cc2C(F)(F)F)ccn1 [788Fb] | < 50 nM | 4.35 nM | – |
| Cc1cc2nc(C)n(CCOc3ccc(Cl)cc3-c3cc(C)nc4c(C(=O)O)csc34)c(=O)c2c(C#N)n1 [compound 685] | < 50 nM | – | – |
| Cc1nc2cnc(N(C)C3CCN([C@H]4C[C@H](F)C4)CC3)c(C#N)c2c(=O)n1CC#Cc1ccc(Cl)cc1-c1ccnc2c(C(=O)NS(C)(=O)=O)csc12 [compound 1602] | – | – | 3.88 nM |
| CNc1nc2c(F)ccc(CCOc3ccc(Cl)cc3-c3cccc(C(=O)O)c3)c2c(=O)[nH]1 [compound 171] | 50 to 1000 nM | 194 nM | – |
| Cc1nc2cnc(N(C)C3CCCN(CC(F)F)C3)c(C#N)c2c(=O)n1CC#Cc1ccc(Cl)cc1-c1ccnc2c(C(=O)O)csc12 (stereo not shown) [compound 1540] | – | – | 19.5 nM |
| CCc1cc(-c2cc(Cl)ccc2OCCn2c(C)nc3c(C)nc(-c4ccccc4)c(C#N)c3c2=O)c2scc(C(=O)O)c2n1 [compound 1015] | < 50 nM | 19.7 nM | – |
| Cc1nc2cnc(N(C)C3CCN(CC(F)(F)C(F)F)CC3)c(C#N)c2c(=O)n1CC#Cc1ccc(Cl)cc1-c1ccnc2c(C(=O)O)csc12 [compound 1103] | < 50 nM | 14.8 nM | – |
| Cc1c(F)c2cc(C(F)(F)F)cc(C#N)c2c(=O)n1CCOc1ccc(Cl)cc1-c1ccnc2c(C(=O)O)csc12 [compound 262] | < 50 nM | – | – |
| Cc1nc2cc(C(F)(F)F)c(N3CCN(CC(F)F)CC3)nc2c(=O)n1CC#Cc1ccc(Cl)cc1-c1ccnc2c(C(=O)O)csc12 [compound 1290] | – | – | 149 nM |
| Cc1cc(-c2cc(Cl)ccc2OCCn2c(C)nc3cc(C(F)(F)F)c(CN4CCS(=O)(=O)CC4)c(C#N)c3c2=O)c2scc(C(=O)O)c2n1 [compound 1377] | – | – | 44 nM |
| Cc1cc(-c2cc(Cl)ccc2OCCn2c(C)nc3c(C)nc(C4CC4)c(C#N)c3c2=O)c2scc(C(=O)O)c2n1 [compound 742] | < 50 nM | 32.5 nM | – |
| Cc1nc2cc(C(F)F)cc(C#N)c2c(=O)n1CCOc1ccc(Cl)cc1-c1ccnc2c(C(=O)O)csc12 [compound 1939] | – | – | 24.5 nM |
| Cc1nc2cnc(C3=CCN(C)CC3)c(C#N)c2c(=O)n1CCOc1ccc(Cl)cc1-c1ccnc2c(C(=O)O)csc12 [compound 888] | < 50 nM | 40.2 nM | – |
| CC(=O)N(C)c1ncc2nc(C)n(CCOc3ccc(Cl)cc3-c3cc(C)nc4c(C(=O)O)csc34)c(=O)c2c1C#N [compound 1053] | < 50 nM | 5.08 nM | – |
| C#Cc1c(C(=O)O)cccc1-c1cc(Cl)ccc1OCCn1c(C)nc2cncc(C#N)c2c1=O [compound 155] | < 50 nM | 45.5 nM | – |
| Cc1nc2cnc(N3CCC4(CC3)CN(CC(C)(F)F)C4)c(C#N)c2c(=O)n1CC#Cc1ccc(Cl)cc1-c1ccnc2c(C(=O)O)csc12 [compound 1137] | < 50 nM | 17.4 nM | – |
| Cc1cc(-c2cc(Cl)ccc2OCCn2c(C)nc3c(C)nc(N4CCNCC4)c(C#N)c3c2=O)c2scc(C(=O)O)c2n1 [compound 878] | < 50 nM | 9.63 nM | – |
| CNC(=O)c1cc(C#N)c2c(=O)n(CCOc3ccc(Cl)cc3-c3ccnc4c(C(=O)O)csc34)c(C)nc2c1 [compound 412] | 50 to 1000 nM | 70.1 nM | – |
